Experimental data taken from PubChem BioAssay AID330 (DTP/NCI, 2004).
Where “and” joins values, the source holds several entries; their conditions need not be identical. Equal values may be shown once. Inconclusive results and toxic doses are left out.

Test system: P388 leukemia ip, CD2F1 mice, survival T/C
Assay: NCI In Vivo Anticancer Drug Screen. Data for tumor model P388 Leukemia (intraperitoneal) in CD2F1 (CDF1) mice
Details: endpoint: median survival time, higher = longer survival
Outline: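 Mice carrying the transplanted tumor received test compound or vehicle. Survival was recorded in each group, and the value is the treated-group measurement divided by that of the vehicle-treated control group.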

[1] = dose: 25.0 mg/kg/injection, schedule: Q01DX009 (ip), vehicle: saline with Tween-80
[2] = dose: 50.0 mg/kg/injection, schedule: Q01DX009 (ip), vehicle: saline with Tween-80
[3] = dose: 100.0 mg/kg/injection, schedule: Q01DX009 (ip), vehicle: saline with Tween-80
[4] = dose: 200.0 mg/kg/injection, schedule: Q01DX009 (ip), vehicle: saline with Tween-80
[5] = dose: 400.0 mg/kg/injection, schedule: Q01DX009 (ip), vehicle: saline with Tween-80
[6] = dose: 60.0 mg/kg/injection, schedule: Q01DX005 (ip), vehicle: saline with Tween-80
[7] = dose: 120.0 mg/kg/injection, schedule: Q01DX005 (ip), vehicle: saline with Tween-80
[8] = dose: 60.0 mg/kg/injection, schedule: Q01DX005 (ip), vehicle: Klucel (hydroxypropylcellulose) (HPC)
[9] = dose: 12.5 mg/kg/injection, schedule: Q04DX002 (ip), vehicle: saline with Tween-80
[10] = dose: 25.0 mg/kg/injection, schedule: Q04DX002 (ip), vehicle: saline with Tween-80

With `Cc1ccc(CNc2ccc(C)c(Cl)c2)cc1` the T/C (dose: 100.0 mg/kg/injection, schedule: Q04DX003 (ip), vehicle: other) was 100 % of control, the T/C (dose: 200.0 mg/kg/injection, schedule: Q04DX003 (ip), vehicle: other) was 100 % of control and the T/C (dose: 400.0 mg/kg/injection, schedule: Q04DX003 (ip), vehicle: other) was 100 % of control.

With `Nc1nc2c(ncn2C2OC(CO)C(O)C2N)c(=O)[nH]1` (stereo not drawn) the T/C [1] was 106 % of control and 97 % of control, the T/C (dose: 25.0 mg/kg/injection, schedule: Q04DX003 (ip), vehicle: saline with Tween-80) was 103 % of control and the T/C (dose: 25.0 mg/kg/injection, schedule: Q04DX003 (ip), vehicle: saline) was 101 % of control. The T/C [2] was 100 % of control and 107 % of control, the T/C (dose: 50.0 mg/kg/injection, schedule: Q04DX003 (ip), vehicle: saline with Tween-80) was 96 % of control and the T/C (dose: 50.0 mg/kg/injection, schedule: Q04DX003 (ip), vehicle: saline) was 104 % of control. The T/C [3] was 106 % of control, the T/C (dose: 100.0 mg/kg/injection, schedule: Q04DX003 (ip), vehicle: saline with Tween-80) was 101 % of control and the T/C (dose: 100.0 mg/kg/injection, schedule: Q04DX003 (ip), vehicle: saline) was 100 % of control and 105 % of control. For the same compound, the T/C [4] was 100 % of control, the T/C (dose: 200.0 mg/kg/injection, schedule: Q04DX003 (ip), vehicle: saline with Tween-80) was 104 % of control and the T/C (dose: 200.0 mg/kg/injection, schedule: Q04DX003 (ip), vehicle: saline) was 98 % of control and 108 % of control. The T/C (dose: 400.0 mg/kg/injection, schedule: Q04DX003 (ip), vehicle: saline with Tween-80) was 101 % of control and the T/C (dose: 400.0 mg/kg/injection, schedule: Q04DX003 (ip), vehicle: saline) was 105 % of control and 107 % of control.

In the case of `Cc1cc(=O)[nH]c2nc3ccccc3n12`, the T/C [2] is reported as 95 % of control, the T/C [3] is reported as 96 % of control and the T/C [4] is reported as 100 % of control. The T/C [5] was 104 % of control.

With `CN1C(=O)C2CCC(=O)N2C(=S)N(C)C1=S` (stereo not drawn) the T/C [6] was 106 % of control and the T/C [7] was 104 % of control.

`COc1ccc2cc3[n+](cc2c1OC)CCc1cc2c(cc1-3)OCO2` was tested, and the T/C (dose: 1.25 mg/kg/injection, schedule: Q01DX009 (ip), vehicle: water) was 99 % of control and 110 % of control, the T/C (dose: 2.5 mg/kg/injection, schedule: Q01DX009 (ip), vehicle: water) was 105 % of control and the T/C (dose: 3.13 mg/kg/injection, schedule: Q01DX009 (ip), vehicle: Klucel (hydroxypropylcellulose) (HPC)) was 95 % of control. The T/C (dose: 5.0 mg/kg/injection, schedule: Q01DX009 (ip), vehicle: water) was 110 % of control and 119 % of control, the T/C (dose: 6.25 mg/kg/injection, schedule: Q01DX009 (ip), vehicle: Klucel (hydroxypropylcellulose) (HPC)) was 107 % of control and the T/C (dose: 10.0 mg/kg/injection, schedule: Q01DX009 (ip), vehicle: water) was 110 % of control. For the same compound, the T/C (dose: 12.5 mg/kg/injection, schedule: Q01DX009 (ip), vehicle: Klucel (hydroxypropylcellulose) (HPC)) was 109 % of control and the T/C (dose: 20.0 mg/kg/injection, schedule: Q01DX009 (ip), vehicle: water) was 119 % of control.

In the case of `CC(=O)OC(OC(C)=O)c1cc(Cl)c(C(OC(C)=O)OC(C)=O)cc1Cl`, the T/C [8] is reported as 107 % of control, the T/C (dose: 120.0 mg/kg/injection, schedule: Q01DX005 (ip), vehicle: Klucel (hydroxypropylcellulose) (HPC)) is reported as 106 % of control and the T/C (dose: 240.0 mg/kg/injection, schedule: Q01DX005 (ip), vehicle: Klucel (hydroxypropylcellulose) (HPC)) is reported as 103 % of control.

In the case of `CCCc1c2cc(OC)c(OC)cc2cc2c3cc(OC)c(OC)cc3cc[n+]12` (tested in a mixture with another compound), the T/C [1] is reported as 102 % of control, the T/C [2] is reported as 111 % of control and the T/C [3] is reported as 109 % of control.

For `COC(=O)C1=C(\OC)c2c(ccc(OC)c2OC)C(=O)N2CCc3cc4c(cc3\C2=C\1C(=O)OC)OCO4`, the T/C (dose: 50.0 mg/kg/injection, schedule: Q04DX002 (ip), vehicle: saline with Tween-80) was 103 % of control, the T/C (dose: 100.0 mg/kg/injection, schedule: Q04DX002 (ip), vehicle: saline with Tween-80) was 105 % of control and the T/C (dose: 200.0 mg/kg/injection, schedule: Q04DX002 (ip), vehicle: saline with Tween-80) was 94 % of control.

`[Cl][Pt+2][Cl].[NH-]Cc1ccccc1[NH-]` was tested, and the T/C (dose: 6.25 mg/kg/injection, schedule: Q04DX002 (ip), vehicle: saline with Tween-80) was 164 % of control, the T/C [9] was 164 % of control and the T/C [10] was 167 % of control.

For `CCOc1c(N=Nc2ccccc2OC)c(C)nn1C(=S)SC`, the T/C (dose: 15.0 mg/kg/injection, schedule: Q01DX005 (ip), vehicle: Klucel + Tween-80) was 92 % of control, the T/C (dose: 30.0 mg/kg/injection, schedule: Q01DX005 (ip), vehicle: Klucel + Tween-80) was 92 % of control and the T/C (dose: 60.0 mg/kg/injection, schedule: Q01DX005 (ip), vehicle: Klucel + Tween-80) was 90 % of control.

In the case of `COc1cc2c(c(OC)c1OC)C(=O)CCC2`, the T/C (dose: 25.0 mg/kg/injection, schedule: Q04DX003 (ip), vehicle: Klucel (hydroxypropylcellulose) (HPC)) is reported as 100 % of control, the T/C (dose: 50.0 mg/kg/injection, schedule: Q04DX003 (ip), vehicle: Klucel (hydroxypropylcellulose) (HPC)) is reported as 104 % of control and the T/C (dose: 100.0 mg/kg/injection, schedule: Q04DX003 (ip), vehicle: Klucel (hydroxypropylcellulose) (HPC)) is reported as 92 % of control and 93 % of control. The T/C (dose: 400.0 mg/kg/injection, schedule: Q04DX003 (ip), vehicle: Klucel (hydroxypropylcellulose) (HPC)) was 90 % of control.

In the case of `O=C(O)CC(=O)O.[NH-]C1CCCC([NH-])C1.[Pt+2]` (stereo not drawn), the T/C [9] is reported as 157 % of control and the T/C [10] is reported as 180 % of control.

For `C=C1C[C@]23C[C@@]1(O)CC[C@H]2[C@@]12C=C[C@@H](O1)C(C(=O)OCC)=C2[C@@H]3O`, the T/C (dose: 3.75 mg/kg/injection, schedule: Q01DX005 (ip), vehicle: saline) was 109 % of control, the T/C (dose: 7.5 mg/kg/injection, schedule: Q01DX005 (ip), vehicle: saline) was 100 % of control and the T/C (dose: 15.0 mg/kg/injection, schedule: Q01DX005 (ip), vehicle: Klucel (hydroxypropylcellulose) (HPC)) was 97 % of control. For the same compound, the T/C (dose: 15.0 mg/kg/injection, schedule: Q01DX005 (ip), vehicle: saline) was 107 % of control and the T/C [8] was 117 % of control.

For `O=C1NC2(CN3CCC2CC3)C(=O)N1CN(Cc1ccccc1)c1ccccc1` (stereo not drawn), the T/C [6] was 99 % of control, the T/C [7] was 99 % of control and the T/C (dose: 240.0 mg/kg/injection, schedule: Q01DX005 (ip), vehicle: saline with Tween-80) was 99 % of control.

With `Cc1nc(C(=O)O)cc([N+](=O)[O-])c1C` the T/C (dose: 25.0 mg/kg/injection, schedule: Q01DX009 (ip), vehicle: other) was 97 % of control, the T/C (dose: 50.0 mg/kg/injection, schedule: Q01DX009 (ip), vehicle: other) was 97 % of control and the T/C (dose: 100.0 mg/kg/injection, schedule: Q01DX009 (ip), vehicle: other) was 100 % of control. The T/C (dose: 200.0 mg/kg/injection, schedule: Q01DX009 (ip), vehicle: other) was 94 % of control.

`COC(=O)c1ccccc1N1C(=O)C=CC1=O` was tested, and the T/C (dose: 6.25 mg/kg/injection, schedule: Q04DX003 (ip), vehicle: saline with Tween-80) was 92 % of control and the T/C (dose: 12.5 mg/kg/injection, schedule: Q04DX003 (ip), vehicle: saline with Tween-80) was 92 % of control.

For `C=Cn1cc[n+](CC(=O)OC2CCC3C4CCC5=CC(=O)CCC5(C)C4CCC23C)c1` (stereo not drawn), the T/C (dose: 3.75 mg/kg/injection, schedule: Q01DX005 (ip), vehicle: Klucel (hydroxypropylcellulose) (HPC)) was 97 % of control and the T/C (dose: 7.5 mg/kg/injection, schedule: Q01DX005 (ip), vehicle: Klucel (hydroxypropylcellulose) (HPC)) was 96 % of control.

For `COc1ccc(C(=O)N/N=C(\C)[C@]2(O)Cc3c(O)c4c(c(O)c3[C@@H](OC3CC(N)C(O)C(C)O3)C2)C(=O)c2c(OC)cccc2C4=O)cc1` (stereo partly drawn), the T/C (dose: 0.12 mg/kg/injection, schedule: Q01DX009 (ip), vehicle: water) was 119 % of control, the T/C (dose: 0.5 mg/kg/injection, schedule: Q01DX009 (ip), vehicle: water) was 151 % of control and the T/C (dose: 1.0 mg/kg/injection, schedule: Q01DX009 (ip), vehicle: water) was 158 % of control and 164 % of control. The T/C (dose: 2.0 mg/kg/injection, schedule: Q01DX009 (ip), vehicle: water) was 174 % of control and 190 % of control, the T/C (dose: 4.0 mg/kg/injection, schedule: Q01DX009 (ip), vehicle: water) was 181 % of control and 211 % of control and the T/C (dose: 6.0 mg/kg/injection, schedule: Q04DX003 (ip), vehicle: water) was 112 % of control. The T/C (dose: 12.0 mg/kg/injection, schedule: Q04DX003 (ip), vehicle: water) was 121 % of control, the T/C (dose: 24.0 mg/kg/injection, schedule: Q04DX003 (ip), vehicle: water) was 166 % of control and the T/C (dose: 48.0 mg/kg/injection, schedule: Q04DX003 (ip), vehicle: water) was 118 % of control.

In the case of `COc1ccc(CCC(=O)O)c(C(CC(=O)O)C(=O)O)c1OS(=O)(=O)c1ccc(C)cc1` (stereo not drawn), the T/C [2] is reported as 94 % of control, the T/C [3] is reported as 105 % of control and the T/C [4] is reported as 97 % of control.

With `Nc1ccc(S(=O)(=O)c2ccc(NCNc3ccc(S(=O)(=O)c4ccc(N)cc4)cc3)cc2)cc1` the T/C [3] was 94 % of control, the T/C [4] was 91 % of control and the T/C [5] was 94 % of control.
